We go through 15 molecules from PubChem BioAssay (NCI).

Some test systems named below: HCT-15 colon; UACC-257 melanoma; SNB-19 CNS; OVCAR-4 ovarian; SN12C renal; LOX IMVI melanoma; IGROV1 ovarian; UO-31 renal; A549 NSCLC.
What all share (assay): inhibition of tumour cell growth, NCI panel, 48 h

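Assay format: 96-well plates, 48-hour exposure. GI50 marks 50% less growth. Definition used: TGI = concentration required for complete inhibition of growth.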 Bounds are passed on as bounds.

As to `O=C(c1ccccc1)C1OC12C(=O)Nc1c(Cl)cc(Cl)cc12` (centres undefined), the TGI in the experiment on HCT-15 colon is above 70 µM; in the experiment with UACC-257 melanoma, above 100 µM; in the experiment on SNB-19 CNS it was above 100 µM; in the experiment on OVCAR-4 ovarian, above 39.9 µM; in the experiment on SN12C renal, above 91.2 µM; in the experiment on LOX IMVI melanoma it was above 61.7 µM. The TGI in the experiment on IGROV1 ovarian, in the experiment on UO-31 renal and with A549 NSCLC was above 100 µM throughout.
Consider `O=C(O)CCC(N=Cc1nc(-c2ccccc2)oc1O)C(=O)O` (centres undefined), for which the TGI with HCT-15 colon, in the experiment with UACC-257 melanoma, in the experiment on SNB-19 CNS, in the experiment on OVCAR-4 ovarian, in the experiment on SN12C renal and in the experiment on IGROV1 ovarian was above 100 µM each time. In addition, the TGI in the experiment on UO-31 renal and with A549 NSCLC was above 100 µM throughout.
In the case of `CC(C)([NH-])CO.CC(C)([NH-])CO.[Cl][Cd][Cl]`, the GI50 in the experiment with HCT-15 colon was 20.3 µM; with UACC-257 melanoma, above 100 µM; in the experiment on SNB-19 CNS, above 100 µM; in the experiment with OVCAR-4 ovarian, 12.4 µM; in the experiment on IGROV1 ovarian it was 19 µM; with UO-31 renal, 35.4 µM. Further, in the experiment on A549 NSCLC, the GI50 was 30.2 µM. Moreover, the TGI is 41.4 µM in the experiment with HCT-15 colon; above 100 µM in the experiment with UACC-257 melanoma; above 100 µM in the experiment on SNB-19 CNS; 25.8 µM in the experiment on OVCAR-4 ovarian; 36.7 µM in the experiment with IGROV1 ovarian; above 100 µM with UO-31 renal. This molecule returned a TGI with A549 NSCLC above 100 µM.
Regarding `NC(=O)/N=C1/CCC2C3CCCC2C13`, the TGI with UACC-257 melanoma, in the experiment with SNB-19 CNS, with OVCAR-4 ovarian, with SN12C renal, in the experiment with LOX IMVI melanoma and in the experiment with IGROV1 ovarian was above 100 µM each time. Besides, the TGI in the experiment with UO-31 renal and with A549 NSCLC was above 100 µM throughout.
Turning to `O=C(CCN1CCN(c2ccccc2)CC1)N1CCc2c([nH]c3ccccc23)C1c1cccnc1` (centres undefined), the TGI is 30.9 µM in the experiment on HCT-15 colon; 31.5 µM in the experiment on UACC-257 melanoma; 66.7 µM in the experiment on SNB-19 CNS; 33 µM with OVCAR-4 ovarian; 29.6 µM with SN12C renal; 30.6 µM in the experiment on LOX IMVI melanoma. Moreover, the figures for the TGI in the experiment with IGROV1 ovarian, in the experiment with UO-31 renal and in the experiment with A549 NSCLC were above 100 µM, 26.1 µM and 29.7 µM, respectively.
Take `CN1C(=O)C2C3C=C4c5ccccc5N(c5ccccc5)C4(C2C1=O)[C@H]1C(=O)N(C)C(=O)[C@@H]31` (some centres undefined): the TGI with UACC-257 melanoma, in the experiment with SNB-19 CNS, in the experiment with OVCAR-4 ovarian, in the experiment on SN12C renal, in the experiment with LOX IMVI melanoma and with UO-31 renal was above 100 µM throughout. Further, the TGI in the experiment with A549 NSCLC is above 100 µM.
For `COC(=O)C(C(=O)OC)C1CCCC(=O)C1` (centres undefined), the TGI in the experiment on HCT-15 colon, in the experiment on UACC-257 melanoma, with SNB-19 CNS, in the experiment on OVCAR-4 ovarian, in the experiment on SN12C renal and in the experiment with LOX IMVI melanoma was above 100 µM throughout. Besides, the TGI in the experiment on IGROV1 ovarian, in the experiment on UO-31 renal and in the experiment with A549 NSCLC was above 100 µM in each case.
Consider `C/C(CC(=O)Nc1ccc(C)c(C)c1)=N\NC(N)=O`, for which the TGI with UACC-257 melanoma, with LOX IMVI melanoma, in the experiment with IGROV1 ovarian, in the experiment with UO-31 renal and with A549 NSCLC was above 100 µM each time.
Regarding `Cn1cnc([N+](=O)[O-])c1Sc1nccn1-c1cccc2ccccc12`, the TGI in the experiment on UACC-257 melanoma is above 100 µM; with SNB-19 CNS, above 100 µM; in the experiment on OVCAR-4 ovarian, 95.3 µM; in the experiment with SN12C renal, above 100 µM; in the experiment with LOX IMVI melanoma it was 32.4 µM; in the experiment on IGROV1 ovarian, above 100 µM. Besides, the TGI with UO-31 renal and in the experiment on A549 NSCLC was above 100 µM each time.
As to `CC(=O)C1C(c2ccc(N(C)C)cc2)c2cc3c(cc2OC1(C)O)OCO3` (centres undefined), the TGI in the experiment on HCT-15 colon, in the experiment with UACC-257 melanoma, in the experiment on SNB-19 CNS, in the experiment on OVCAR-4 ovarian, in the experiment on SN12C renal and in the experiment with LOX IMVI melanoma was above 100 µM each time. For the same molecule, the TGI in the experiment on IGROV1 ovarian, in the experiment on UO-31 renal and in the experiment with A549 NSCLC was above 100 µM each time.
With `COc1ccc(-c2cc(=O)c3cc(OC)ccc3[nH]2)cc1`, the TGI in the experiment on UACC-257 melanoma, in the experiment on SNB-19 CNS, in the experiment with OVCAR-4 ovarian, in the experiment with SN12C renal, with LOX IMVI melanoma and in the experiment with IGROV1 ovarian was above 100 µM in each case. For the same molecule, the TGI in the experiment on UO-31 renal and in the experiment on A549 NSCLC was above 100 µM in each case.
In the case of `Oc1ccc2ccccc2c1N=Nc1ccsc1`, the TGI in the experiment with HCT-15 colon, in the experiment with UACC-257 melanoma, with SNB-19 CNS, in the experiment on OVCAR-4 ovarian, in the experiment with SN12C renal and in the experiment on LOX IMVI melanoma was above 100 µM each time. The TGI in the experiment on IGROV1 ovarian, with UO-31 renal and in the experiment with A549 NSCLC was above 100 µM throughout.
Turning to `COc1cc(C2SCC(=O)N2c2ncc(C)s2)cc(OC)c1OC` (centres undefined), the GI50 with HCT-15 colon is 16.3 µM; with UACC-257 melanoma, above 50 µM; in the experiment on SNB-19 CNS, 34.5 µM; with OVCAR-4 ovarian it was above 50 µM; in the experiment with SN12C renal, 13.3 µM; in the experiment on LOX IMVI melanoma, 31.2 µM. The results for the GI50 in the experiment on IGROV1 ovarian, in the experiment with UO-31 renal and in the experiment on A549 NSCLC were above 50 µM, above 50 µM and 45.4 µM, respectively. Also, the TGI in the experiment on HCT-15 colon, in the experiment on UACC-257 melanoma, in the experiment on SNB-19 CNS, with OVCAR-4 ovarian, with SN12C renal and in the experiment on LOX IMVI melanoma was above 50 µM each time. Further, the TGI with IGROV1 ovarian, in the experiment with UO-31 renal and with A549 NSCLC was above 50 µM each time.
For `Cc1cccc(C(C)(C)C)c1NC(=O)CC1C(=O)Nc2ccccc2S1(=O)=O` (centres undefined), the TGI with HCT-15 colon is 16.3 µM; in the experiment on UACC-257 melanoma, above 100 µM; with SNB-19 CNS, 29.2 µM; in the experiment with OVCAR-4 ovarian it was 25.5 µM; with SN12C renal it was 25.7 µM; with LOX IMVI melanoma, 18.6 µM. In addition, the TGI in the experiment on IGROV1 ovarian came out at 21.8 µM; with UO-31 renal it was 23.3 µM; in the experiment with A549 NSCLC it was 27.9 µM.
For the molecule `CC(=O)OC[C@@H](COC(=O)/C=C/c1ccc(O)cc1)OC1OC(CO)C(O)C(O)C1O` (some centres undefined), the TGI in the experiment on HCT-15 colon, in the experiment on UACC-257 melanoma, in the experiment on SNB-19 CNS, with OVCAR-4 ovarian, in the experiment with SN12C renal and in the experiment with LOX IMVI melanoma was above 100 µM each time. The TGI with IGROV1 ovarian, in the experiment on UO-31 renal and in the experiment with A549 NSCLC was above 100 µM throughout.
